# Laboratory results: patent US7541477B2, “Antagonists to melanin-concentrating hormone receptor comprising benzimidazole derivative as active ingredient” (Banyu Pharmaceutical Co., Ltd., priority 2002, dated 2009)
# Counter-ions that a name gives are not always drawn.
# Target: T1, human MCH-1R (Homo sapiens, UniProt Q99705)
# T1 construct: expressed in transfected cells; host or cells: CHO-K1 (American Type Culture Collection), membrane preparation
# Experiment: MCH binding inhibition assay ([125I]MCH, membranes of CHO-K1 cells expressing MCH-1R)
# Conditions: 50 pM [125I]MCH, 25° C., 1 hour; read-out: 50% Inhibitory Concentration against MCH-Binding, IC50
# Description: cDNA sequence encoding human MCH-1R [FEBS Letters, 398:253(1996), Biochimica et Biophisica Acta, 1401: 216(1998)] was cloned into plasmid vector pEF/mic/cyto (Invitrogen). The expression vector so obtained was transfected into host cells CHO-K1 (American Type Culture Collection) by using Lipofectamine Plus Reagent (Life Technologies) to give MCH-1R expressing cells.
# Membrane preparation generated from the cells expressing MCH-1R was incubated together with a test compound and 50 pM [^125I]MCH (NEN) in assay buffer (50 mM Tris buffer, pH7.4, containing 10 mM magnesium chloride, 2 mM ethylenediaminetetraacetic acid, 0.01% Bacitracin and 0.2% bovine serum albumin) at 25° C. for 1 hour, then filtered through a glass filter GF/C (Whatman). After washing the glass filter with 50 mM Tris buffer, pH7.4, containing 10 mM magnesium chloride, 2 mM ethylenediaminetetraacetic acid and 0.04% Tween-20, radioactivity on the glass filter was measured. Nonspecific binding was measured in the presence of 1 μM human MCH and a 50% inhibitory concentration (IC50) of the test compound against specific [^125I]MCH-binding was determined.
# T1 sequence (Q99705 whole entry): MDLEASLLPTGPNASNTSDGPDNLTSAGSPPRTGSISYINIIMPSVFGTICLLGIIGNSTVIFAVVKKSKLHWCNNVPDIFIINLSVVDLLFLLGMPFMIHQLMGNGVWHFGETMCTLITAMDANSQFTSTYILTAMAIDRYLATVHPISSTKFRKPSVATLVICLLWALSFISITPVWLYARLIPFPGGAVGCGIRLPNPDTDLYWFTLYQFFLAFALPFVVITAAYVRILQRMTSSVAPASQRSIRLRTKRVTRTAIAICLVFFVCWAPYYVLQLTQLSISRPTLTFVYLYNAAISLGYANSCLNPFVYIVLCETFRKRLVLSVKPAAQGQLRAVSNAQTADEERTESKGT
row,Structure (SMILES),IC50 [nM]
1,"CC(C)N(C)c1nc2ccc(NC(=O)c3cnc(-c4ccc(F)cc4)cn3)cc2[nH]1 [Example 24, 5-(4-Fluorophenyl)-N-{2-[isopropyl(methyl)amino]-1H-benzimidazol-6-yl}-2-pyrazinecarboxamide hydrochloride]",3.3
2,"CC(C)N(C)c1nc2ccc(NC(=O)CCc3ccc(C(F)(F)F)cc3)cc2[nH]1 [Example 1, N-{2-[isopropyl(methyl)amino]-1H-benzimidazol-6-yl}-3-[4-(trifluoromethyl)phenyl]propanamide]",5.8
3,"COc1ccc(-c2ccc(C(=O)Nc3ccc4nc(N(C)C(C)C)[nH]c4c3)cc2)cn1 [Example 17, N-{2-[isopropyl(methyl)amino]-1H-benzimidazol-6-yl}-4-(6-methoxy-3-pyridinyl)benzamide]",6.2
